Assay results taken from patent US20040018482A1, “Loading and unloading of permeating protectants for cell, tissue, and organ cryopreservation by vitrification” (priority 1997, published 2004).

Columns and labels:
isolated rat heart = assay: Cardiac function of isolated rat heart (working mode reperfusion) after DMSO loading and unloading
Protocol: Preparation of the Cardiac Explant: The animal experiments were conducted in accordance with the “Principles of Laboratory Animal Care” formulated by the Institute of Laboratory Animal Resources and the “Guide for the Care and Use of Laboratory Animals” prepared by the Institute of Laboratory Animal Resources and published by the National Institute of Health (NIH Publication No. 86-23, 1985). Male Sprague-Dawley rats (300-350g) were anesthetized with sodium pentobarbital (65 mg/kg, ip) and anticoagulated with heparin (250u, iv). The heart was excised and immediately immersed in ice-cold Krebs-Henseleit buffer (KHB), which contained (in mM): 118 NaCl, 11 glucose, 25 NaHCO3, 4.7 KCl, 1.2 MgSO4, 1.2 KH2PO4, 0.5 Na-EDTA, and 2.5 CaCl2. The aorta was cannulated and the heart retrograde perfused at 70 mm Hg for 9 min. with 36.5° C. KHB equilibrated with 95% 02/[…]. The perfusion was continued for 2 min. at 60 mm Hg with CP-11E saturated with 100% 02. The composition of CP-11E (in mM) was: 125 NaCl, 7 glucose, 1.2 KH2PO4, 10 mannitol, 15 MgSO4, 14 KCl, 10 Hepes, 0.02 EDTA, 0.28 CaCl2 , pH 7.5.
After CP-11E flush, the arrested heart was transferred to a perfusion apparatus (FIG. 1). Both CP-11EB and CP-11E+DMSO+mannitol were bubbled constantly with 100% 02. Perfusate was delivered via an aortic cannula by a peristaltic pump at a flow rate of 1 ml/min. Two experiments were performed at room temperature.
Experiment 0: The heart was gradually loaded with 30 wt % DMSO and immediately unloaded. No co-solutes were used. […]
Assessment of cardiac function: Cardiac function was assessed by working mode reperfusion with KHB at 11 mm Hg preload and 70 mm Hg after load. Heart rate (HR, beats/min), aortic and coronary flow (AF and CF, ml/min.), cardiac output (CO=AF+CF, ml/min.), systolic and diastolic aortic pressure (mm Hg) were recorded. Coronary vascular resistance and work were calculated according to Neely et al., 1967 (Neely et al. “Effect of Pressure Development on Oxygen Consumption by the Isolated Rat Heart ”. Am. J. Physiology, 212:804-12, 1967).

erythrocytes = assay: Hemolysis of rat erythrocytes after step loading and unloading with ethylene glycol vitrification solution; type: cell-based; conditions: added to 60 wt % EG+0.9 wt % NaCl vitrification solution; 60 min equilibration and two unloading steps; room temperature, pH 7.0; FIG. 1
Protocol: Blood was sampled from external jugular vein of rats after heart extrusion described in Example 1.
Step 1: 100 μl of blood were mixed with 100 μl of 30 wt % EG+0.9 wt % NaCl. Equilibration time 10 min.
Step 2: 1000 μl of vitrification solution vitrification solution containing mixture of 60 wt % EG+0.9 wt % NaCl with different amounts of glutamic acid monosodium Salt (GA) per gram of Vitrification solution were slowly (during 3-5 min.) added to the mixture obtained after Step 1.
After that the blood cells were equilibrated in Vitrification solution during 60 min. before unloading.
Step 1: After 60 min. equilibration in vitrification solution erythrocytes were centrifuged down (5 min. at 2000 g), 0.5 ml of supernatant was removed from each sample, and 0.5 ml of 3 wt % GA+0.9 wt % NaCl were added to each sample. […]
Concentration of free hemoglobin in supernatants collected from the samples after equilibration in Vitrification solution, first and second step of unloading was used to characterize the erythrocyte damage (hemolysis). The concentration of free hemoglobin was measured using 390 Turner spectrophotometer (at 550 nm wavelength) after adding 0.5 ml of supernatant to 3 ml of water. The hemolysis was measured as a ratio of hemoglobin concentration in the supernatants to the hemoglobin concentration in the mixture of 41.7 μl of blood with 3.5 ml water that was taken as 100% hemolysis. […]

[1] = test system: Drosophila melanogaster embryos; conditions: co-solute in ethylene glycol vitrification solution; cited from earlier work
[2] = Experiment 0: loaded to 30 wt % DMSO in 30 min, unloaded 60 min, no co-solutes (mannitol not present)

Which “recovery in function after unloading” value (isolated rat heart; [2]) does the source give for `C[S+](C)[O-]` [DMSO, dimethylsulfoxide] here?
Its value is “no recovery in function”.

And the “state of the heart (contracture)” value (isolated rat heart; [2])?
The value was “developed contracture”.

With `N[C@@H](CCC(=O)O)C(=O)[O-].[Na+]` [GA, glutamic acid monosodium Salt] as the molecule, how does the “effect of co-solute on erythrocyte damage (hemolysis)” value (erythrocytes) read?
The value was “protects erythrocytes from damage”.

With `N[C@@H](CCC(=O)O)C(=O)O` [glutamic acid] as the molecule, how does the “effect on ethylene glycol permeation into embryos” value [1] read?
Its value is “significantly diminished ethylene glycol permeation”.

For `NCC(=O)O` [glycine], which “effect on ethylene glycol permeation into embryos” value [1] is on record?
The value was “significantly diminished ethylene glycol permeation”.

Which “effect of presence of mannitol on damage to the heart caused by high concentration of DMSO and changes in osmotic pressure” value (isolated rat heart; mannitol present during loading, perfusion and unloading (Experiments 1 and 2)) does the source give for `OC[C@@H](O)[C@@H](O)[C@H](O)[C@H](O)CO` [mannitol] here?
Its value is “prevented damage to the heart”.

Which “effect on ethylene glycol permeation into embryos” value [1] does the source give for `OC[C@@H](O)[C@@H](O)[C@H](O)[C@@H](O)CO` [sorbitol] here?
Its value is “significantly diminished ethylene glycol permeation”.
